According to publication PMC6386767, “Characterization of recombinant fructose-1,6-bisphosphatase gene mutations: evidence of inhibition/activation of FBPase protein by gene mutation” (Bioscience Reports, 2019):
Changes are numbered by the printed parent chain.

Legend:
pig kidney FBPase M248D [1] = molecular target: T1, pig kidney FBPase M248D (Sus scrofa, UniProt P00636, M249D); assay: Differential scanning fluorimetry, M248D mutant; assay type: binding; conditions: enzyme M248D
T1 construct: His6 (C); made in house; host or cells: Escherichia coli BL21 (DE3)
T1 sequence (P00636 1-338 M249D): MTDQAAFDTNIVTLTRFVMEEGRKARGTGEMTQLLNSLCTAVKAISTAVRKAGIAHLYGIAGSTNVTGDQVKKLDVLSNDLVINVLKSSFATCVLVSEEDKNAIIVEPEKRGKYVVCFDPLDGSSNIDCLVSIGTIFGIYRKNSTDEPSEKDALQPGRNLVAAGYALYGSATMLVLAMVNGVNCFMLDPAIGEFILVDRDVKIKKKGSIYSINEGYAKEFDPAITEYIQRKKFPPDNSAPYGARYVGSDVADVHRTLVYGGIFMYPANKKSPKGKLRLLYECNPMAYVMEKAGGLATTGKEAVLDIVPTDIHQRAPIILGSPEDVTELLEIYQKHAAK
Description: (§1) Differential scanning fluorimetry (DSF) assays were designed and implemented to run on WT and each mutant for the purpose of determining relative stabilities by melting point, and to detect structural changes in the enzymes upon ligand binding. Thermal shift assays were performed with a Light Cycler 96 System Real-Time PCR machine (Roche) using Sypro-Orange dye (Invitrogen) and thermal ramping (0.25°C per min between 20 and 85°C). […] Data were processed using the Boltzmann equation to generate sigmoidal denaturation curves, and average Tm/ΔTm values were calculated as previously described using GraphPad Prism software package.

pig kidney FBPase Y113A [2] = molecular target: T2, pig kidney FBPase Y113A (Sus scrofa, UniProt P00636, Y114A); assay: Malachite Green kinetic assay, Y113A mutant; assay type: biochemical; conditions: for IC50: FBP substrate 10 to 50 µM
T2 construct: His6 (C); made in house; host or cells: Escherichia coli BL21 (DE3)
T2 sequence (P00636 1-338 Y114A): T1 sequence (P00636 1-338 M249D) with Y114A, D249M
Description: (§2) For the kinetic assay, a standard curve was obtained from an ammonium molybdate Malachite Green inorganic phosphate assay (OD660 nm). The purified FBPase protein was dialyzed ×3 in 50 mM Tris buffer at pH 7.5 at 4°C. For enzyme concentration, absorbency values were recorded for all five mutant proteins using spectrophotometer readings at OD280 nm. To quantitate enzyme concentration, the enzymes were calculated based on the quantity of micrograms per microliter (µg/µl) present. Final concentration of WT and mutant enzymes was between 2.5 and 5.0 µg/µl. Using a colorimetric assay as described below, specific activity (SA) was determined. At last, all kinetic and binding assays described below were performed in 50 mM Tris pH 7.5.
(§3) Kinetic assays were performed for WT and mutant enzymes to identify functional differences between the WT enzyme and the mutants. […] Readings recorded at OD660 nm for each enzyme were applied to the standard curve equation. Micromoles of inorganic phosphate were calculated to determine the SA of mutant enzymes.
(§4) For each clone, the kinetic assay was performed in duplicates of triplicates. Malachite Geen was used to detect inorganic phosphate. Two separate clones were processed independently of the same mutant. All kinetic data were fit to symmetric sigmoidal curve using Origin software based on methods previously described [[27–29]]. More specifically, for kinetic parameters established via curve fitting (shown in Tables 1–3; and in Figure 5A,B), the equation y = d + (a − d)/1 + (x/c)^b was used where ‘x’ is represented by apparent Michelis constant (Km) when y = Vmax. […] P-values were significant at <0.001 and represent a comparison with the WT enzyme.

pig kidney FBPase Y113A [3] = molecular target: T2, pig kidney FBPase Y113A; assay: Differential scanning fluorimetry, Y113A mutant; assay type: binding; conditions: enzyme Y113A
Description: as §1

pig kidney FBPase L73A [4] = molecular target: T3, pig kidney FBPase L73A (Sus scrofa, UniProt P00636, L74A); assay: Differential scanning fluorimetry, L73A mutant; assay type: binding; conditions: enzyme L73A
T3 construct: His6 (C); made in house; host or cells: Escherichia coli BL21 (DE3)
T3 sequence (P00636 1-338 L74A): T1 sequence (P00636 1-338 M249D) with L74A, D249M
Description: as §1

pig kidney FBPase L73A [5] = molecular target: T3, pig kidney FBPase L73A; assay: Malachite Green kinetic assay, L73A mutant; assay type: biochemical; conditions: enzyme L73A; for IC50: FBP substrate 10 to 50 µM
Description: as §2, §3, §4

pig kidney FBPase M248D [6] = molecular target: T1, pig kidney FBPase M248D; assay: Malachite Green kinetic assay, M248D mutant; assay type: biochemical; conditions: for IC50: FBP substrate 10 to 50 µM
Description: as §2, §3, §4

pig kidney FBPase WT = molecular target: T4, pig kidney FBPase WT (Sus scrofa, UniProt P00636); assay: Differential scanning fluorimetry, WT enzyme; assay type: binding; conditions: enzyme WT
T4 construct: His6 (C); made in house; host or cells: Escherichia coli BL21 (DE3)
T4 sequence (P00636 1-338): T1 sequence (P00636 1-338 M249D) with D249M
Description: as §1

Nc1ncnc2c1ncn2[C@@H]1O[C@H](COP(=O)(O)O)[C@@H](O)[C@H]1O [AMP]
melting point of enzyme with AMP (100 µM) (pig kidney FBPase M248D [1]; AMP 100 µM): 59.0 (± 2.50) °C | IC50 (pig kidney FBPase Y113A [2]; enzyme Y113A_1): 48.6 µM | IC50 (pig kidney FBPase Y113A [2]; enzyme Y113A_2): 55.3 µM | reduction in melting temperature, presence of AMP vs absence of ligand (pig kidney FBPase Y113A [3]): 5–9 ° | melting point of enzyme with AMP (100 µM) (pig kidney FBPase Y113A [3]; AMP 100 µM): 45.0 (± 1.25) °C | melting point of enzyme with AMP (100 µM) (pig kidney FBPase L73A [4]; AMP 100 µM): 56.0 (± 3.00) °C | AMP Hill coefficient (pig kidney FBPase L73A [5]): 2.1 (± 0.2) | IC50 (pig kidney FBPase L73A [5]): 6.95 µM | AMP Hill coefficient (pig kidney FBPase M248D [6]; enzyme M248D): 2.5 (± 0.2) | IC50 (pig kidney FBPase M248D [6]; enzyme M248D): 7.2 µM | melting point of enzyme with AMP (100 µM) (pig kidney FBPase WT; AMP 100 µM): 59.0 (± 1.75) °C

O=P(O)(O)OC[C@H]1O[C@@](CO)(OP(=O)(O)O)[C@@H](O)[C@@H]1O [F2,6-BP, fructose-2,6-bisphosphate]
Ki (pig kidney FBPase Y113A [2]; enzyme Y113A): 0.25 µM | IC50 (pig kidney FBPase Y113A [2]; enzyme Y113A_1): 1.8 µM | IC50 (pig kidney FBPase Y113A [2]; enzyme Y113A_2): 1.7 µM | Ki (pig kidney FBPase L73A [5]): 1.35 µM | IC50 (pig kidney FBPase L73A [5]): 7.25 µM | Ki (pig kidney FBPase M248D [6]; enzyme M248D): 1.5 µM | IC50 (pig kidney FBPase M248D [6]; enzyme M248D): 10.5 µM

[Mg+2] [Mg^2+, magnesium]
melting point of enzyme with Mg^2+ ([…]) (pig kidney FBPase M248D [1]; Mg^2+ […]): 65.0 (± 1.75) °C | Ka (pig kidney FBPase Y113A [2]; enzyme Y113A, association (binding) constant from saturation curve): 0.48 (± 0.16) mM | Hill coefficient (pig kidney FBPase Y113A [2]; enzyme Y113A, for magnesium): 2.00 (± 0.19) | melting point of enzyme with Mg^2+ ([…]) (pig kidney FBPase Y113A [3]; Mg^2+ […]): 52.0 (± 1.50) °C | melting point of enzyme with Mg^2+ ([…]) (pig kidney FBPase L73A [4]; Mg^2+ […]): 56.5 (±2.25) °C | Ka (pig kidney FBPase L73A [5]; association (binding) constant from saturation curve): 0.48 (± 0.17) mM | Hill coefficient (pig kidney FBPase L73A [5]; for magnesium): 2.95 (± 0.17) | decrease in Ka for magnesium binding (pig kidney FBPase M248D [6]; enzyme M248D vs WT): 6.25 | Ka (pig kidney FBPase M248D [6]; enzyme M248D, association (binding) constant from saturation curve): 0.08 (± 0.02) mM | Hill coefficient (pig kidney FBPase M248D [6]; enzyme M248D, for magnesium): 2.20 (± 0.17) | melting point of enzyme with Mg^2+ ([…]) (pig kidney FBPase WT; Mg^2+ […]): 50.0 (± 1.25) °C
